Experimental data from US5824072A, “Biocompatible ocular implants” (Oculex Pharmaceuticals, Inc., priority 1996, dated 1998).
Read-outs that look alike come from different tables or passages of the source.

What was measured:
[1] = rabbit, in vivo
Method: One eye of each of six rabbits was implanted at the pars plana with methotrexate (MTX)-lactic acid microspheres and in one eye of another six rabbits with hydrocortisone, acetate-lactic acid microspheres.
A 40% (by weight) mixture of MIX and hydrocortisone with polylactate polymer were solubilized in chloroform and ethanol (Table 1). Coacervation into microcapsules tool place in 500 ml of a 5% polyvinyl alcohol aqueous solution with moderate to high speed stirring. Evaporation was performed under light vacuum with constant stirring for an additional 8 hrs. The resulting microspheres measuring 0.1 to 0.5 mm were selected and dried in vacuum for an additional 24 to 48 hours. Approximately 25 microcapsules were implanted at the pars plana.

[2] = rabbit, in vivo; remark: listed apart in the source
Method: A 40% (by weight) of MTX and hydrocortisone and polylactate polymer were mixed under moltened conditions (Table 2). The resulting mixture was plated into a thin layer of approximately 0.4 to 0.5 mm in thickness and cooled overnight at room temperature. A plaque measuring approximately 3×4 mm was fashioned from the layer and was surgically placed into the pars plana.
Plaques of MTX and hydrocortsone were given to one eye of each of 3 animals at the pars plana and over the vitreous base following scleral resection.

[3] = In vitro drug release from polyurethane sheets; type: physicochemical
Method: After drying of the mixtures, implants were then cut from the resulting sheets of drug-filled polymer affixed to the release liner. The drug-release behavior of the polymeric, drug-containing sheets was then tested. The release liner was removed from an implant sheet and a weighed sample of the sheet added to a solution containing four parts by weight ethanol and six parts by weight of deionized water at 37° C. with slow stirring. The appearance of the dissolved drug was followed as a function of time by spectrophotometry.

In the case of `C[C@]12CCC(=O)C=C1CC[C@@H]1[C@@H]2[C@@H](O)C[C@@]2(C)[C@H]1CC[C@]2(O)C(=O)CO` [Hydrocortisone, hydrocortisone], the “drug concentration, RE PC” value ([1]; 10080 min) is reported as 0 ng/mL, the “drug concentration, RE PC” value ([1]; 20160 min) is reported as 0 ng/mL and the “drug concentration, RE PC” value ([1]; 30240 min) is reported as 0 ng/mL. For the same compound, the “drug concentration, RE PC” value ([1]; 40320 min) was 0 ng/mL, the “drug concentration, RE PC” value ([1]; 50400 min) was 0 ng/mL and the “drug concentration, RE PC” value ([1]; 60480 min) was 0 ng/mL. For the same compound, the “drug concentration, RE PC” value ([2]; 43200 min) was 0 ng/mL, the “drug concentration, RE PC” value ([2]; 86400 min) was 0 ng/mL and the “drug concentration, RE PC” value ([2]; 129600 min) was 0 ng/mL.

With `CN(Cc1cnc2nc(N)nc(N)c2n1)c1ccc(C(=O)N[C@@H](CCC(=O)O)C(=O)O)cc1` [MTX, methotrexate] the “drug concentration, LE PC” value ([1]; 10080 min) was 0 ng/mL, the “drug concentration, LE PC” value ([1]; 20160 min) was 0 ng/mL and the “drug concentration, LE PC” value ([1]; 30240 min) was 0 ng/mL. For the same compound, the “drug concentration, LE PC” value ([1]; 40320 min) was 0 ng/mL, the “drug concentration, LE PC” value ([1]; 50400 min) was 0 ng/mL and the “drug concentration, LE PC” value ([1]; 60480 min) was 0 ng/mL. For the same compound, the “drug concentration, LE PC” value ([2]; 43200 min) was 0 ng/mL, the “drug concentration, LE PC” value ([2]; 86400 min) was 0 ng/mL and the “drug concentration, LE PC” value ([2]; 129600 min) was 0 ng/mL.

In the case of `C[C@@H]1C[C@H]2[C@@H]3CCC4=CC(=O)C=C[C@]4(C)[C@@]3(F)[C@@H](O)C[C@]2(C)[C@@]1(O)C(=O)CO` [dexamethasone], the “drug released from sheets” value ([3]; Example 1 polyurethane/dexamethasone sheet, ethanol/deionized water 4:6 by weight, 37° C., within 4 hrs) is reported as “more than 50%”.

With `Nc1nc(O)c2ncn(COC(CO)CO)c2n1` [gancyclovir] the “drug released from sheets” value ([3]; Example 2 polyurethane/gancyclovir sheet, in vitro as described above, after the first 2 hrs) was “more than 60%”.
